{
  "source": "patent US12622863B2",
  "about": "“Injectable composition and use of said composition” (INNATE S.R.L., priority 2020, dated 2026)",
  "test_system": "hyaluronidase",
  "assay": "degradation of hyaluronic acid by standard hyaluronidase",
  "type": "biochemical",
  "source_text": "In the composition, the nicotinamide is not only a functional excipient adapted to protect the hyaluronic acid by virtue of its antioxidant action, but also acts against the action of the hyaluronidase, allowing the viscosupplementation features to be maintained over time. Experimental tests have shown that in a composition without nicotinamide, the hyaluronic acid is degraded by a 50% standard hyaluronidase after one hour; on the contrary, with a presence of nicotinamide in the percentages described above, the hyaluronic acid degrades by only 20% after one hour, while the normal products on the market degrade by 70%.",
  "data": [
    {"smiles": "NC(=O)c1cccnc1", "note": "[nicotinamide]", "values": [
      {"measurement": "inhibitory effect on hyaluronidase", "value": "inhibitory effect on hyaluronidase"}
    ]}
  ]
}
